Holding throughout (assay type): cell-based
Experiment [1] deals with cellules BALB/c 3T3 transfectées par pEJ-ras-H (cellules transformées). Put plainly: Killing of transformed cells by micro-injection followed by near-UV irradiation (400 nm). Particulars: micro-injection into transformed cells, irradiation at a frequency close to UV; checked by Trepan blue staining or microscopy. The source says:
Cet exemple concerne la destruction de cellules transformées, par micro-injection de Lucifer Yellow CH, suivie d'une irradiation à 400 nm.
Pour la production de cellules transformées, on a utilisé des cellules BALB/c 3T3, ce système de transformation assurant la production in situ de cellules transformées sur une couche mono-cellulaire normale, et simule ainsi la cancérogenèse in vivo.
Des cellules BALB/c 3T3 ont été transfectées par un oncogène activé que l'on a isolé d'un carcinome de vessie humaire, le pEJ-ras-H; par cette opération, on a obtenu des cellules transformées. […] Lorsque de nombreuses cellules sont tuées dans un foyer transformé, le foyer entier se décolle du fond de la boîte de Pétri. L'élimination de cellules se vérifie habituellement par coloration au "Trepan blue" mais peut également être confirmée par observation attentive au microscope : ces cellules ne montrent pas de capacité de prolifération; un grand nombre d'entre elles sont décollées.

For experiment [2], the system named is cellules épithéliales de foie de rat transformées (IAR 27 ou IAR 6-1) et non transformées (IAR 20). Nature of the experiment: Co-culture of transformed and non-transformed cells: micro-injection, dye diffusion and killing after near-UV exposure. The source says: On a utilisé aussi des cellules épithéliales de foie de rat transformées et non transformées. Puisqu'à l'heure actuelle, il n'existe pas de mé-thode d'induction in situ de foyer épithélial transformée par des cancé-rogènes, on a cocultivé articifiellement des cellules épithéliales de foie de rat transformées et non transformées, de sorte que les deux types de cellules puissent être en contact. Lorsque les cellules transformées (IAR 27 ou IAR 6-1) sont cultivées avec des cellules non transformées (IAR 20), la frontière entre les deux types de cellules est clairement visible à cause de la différence de leur aspect morphologique.

For the next experiment, the system named is cellules transformées. Nature of the experiment: Selective destruction of transformed cells by micro-injection into one target cell followed by activation at 400 nm. Conditions: set of 100 transformed cells, activation at 400 nm for 5 to 10 minutes. The source says:
Pour être utilisée conformément à l'objectif visé, la susbtance (a) doit être acheminée par toute technique appropriée dans au moins l'une des cellules transformées à détruire, à partir de laquelle elle passe de manière spécifique dans les autres cellules transformées du même site, par l'intermédiaire des "gap junctions". La technique préférée actuellement est la micro-injection, bien connue de l'homme du métier et décrite en détail dans l'article de Cancer Res. cité plus haut.
Dans la pratique, il apparaît avantageux de micro-injecter la substance (a) ou des solutions salines (par exemple en milieu physiologique) de la substance (a), à raison d'un volume pouvant ne pas dépasser environ 10% par rapport au volume de la cellule-cible, par des micro-injections fractionnées et espacées entre elles, par exemple à des intervalles de 10 minutes, ou par une micro-injection en continu.
Il est préférable de respecter une attente entre la dernière micro-injection ou la fin de la micro-injection en continu et l'entrée en fonction du moyen pour l'activation de la susbtance toxique (a), afin que le passage de cette dernière dans l'ensemble des cellules transformées du site traité soit effectif. […]

In experiment [3] the test system is foyers transformés de cellules BALB/c 3T3. Nature of the experiment: Stimulation of gap junction communication by an exogenous compound and its effect on selective elimination. The procedure:
L'efficacité d'élimination a également été augmentée par stimulation de la communication des "gap junctions" par un composé exogène : après addition de dibutyryl c-AMP (1mM) dans une boîte de Pétri qui contient des foyers transformés de cellules BALB/c 3T3, on a observé que les communications intercellulaires sont stimulées dans les foyers transformés et dans la monocouche non transformée; cependant, les deux types de cellules ne communiquent pas entre eux.

We go through two compounds from patent EP0279757A1, “Kit for use as an agent for the selective destruction of transformed cells” (priority 1987, dated 1988).

With Lucifer Yellow CH, the “élimination sélective des cellules transformées” value in experiment [1] is on record as “on a pu les tuer”. Moreover, the mort des cellules-cibles entry in experiment [2] (after exposure to near-UV radiation) is on record as “la mort des cellules”. In experiment [2] (micro-injection in co-culture of IAR 27 or IAR 6-1 with IAR 20), the diffusion du colorant result is recorded as “diffusion sélective du colorant dans les cellules du même type”. Also, the “destruction de cellules transformées” value in the experiment on cellules transformées is “destruction sélective complète”.

For the compound `CCCC(=O)Nc1ncnc2c1ncn2[C@@H]1O[C@@H]2COP(=O)(O)O[C@H]2[C@H]1OC(=O)CCC` [dibutyryl c-AMP], the “élimination sélective dans les cellules transformées” value in experiment [3] (1mM added to the Petri dish, elimination by Lucifer Yellow CH micro-injection and irradiation) is listed as “plus facilement”. In addition, the communications intercellulaires result in experiment [3] (1mM added to the Petri dish, in transformed foci and in the non-transformed monolayer, the two cell types do not communicate with each other) was “stimulées”. For the same compound, the “spécificité de communication intercellulaire” value in experiment [3] (prolonged treatment, transformed phenotypes then began to disappear) is “suppression de la spécificité de communication”.
